Data as given in patent US11813355B2, “Curcumin-loaded nanoemulsions, method of manufacture, and method of preventive treatment using the same” (UNIVERSIDAD DE CHILE, priority 2016, dated 2023).
Values after ≈ are worked out from the molar mass of the structure shown.

Columns and labels:
[1] = tested on: Metastatic B16F10 murine melanoma cells; assay: Viability assay (MTS), B16F10 cells; format: cell-based; conditions: Mus musculus, B16-F10, B16F10, 24 h treatment, read-out: IC50, decrease of proliferation/viability
Method: Metastatic B16F10 murine melanoma cells were cultured in RPMI 1640 (Roswell Park Memorial Institute) supplemented with 10% FBS, 2 mM glutamine, and antibiotics (100 U/mL penicillin and 100 μg/mL streptomycin) at 37° C. in 5% CO2.
The cultured metastatic B16F10 murine melanoma cells and cultured human embryonic kidney cells (HEK293T) were seeded in 96-well plates at a density of 1×10^4 cells per well and incubated for 24 h in culture medium. […] 2% Sodium dodecyl sulfate (SDS) and a standard cell medium were used as positive and negative cell controls, respectively. Cell proliferation was evaluated by the MTS® assay, according to the manufacturer's (Promega, Madison, WI) instructions. Absorbance was evaluated at 490 nm removing any background absorbance (620 nm) in plate reader (Tecan Infinite 200 pro NanoQuant).

[2] = tested on: uterine cervical cancer cell line HeLa; assay: Viability assay (CellTiter 96 MTS), HeLa cells; format: cell-based, human
Method: To further determine the effect of the formulation on cell viability, the calorimetric method of tetrazolium salt reduction (CellTiter 96®) was used to establish a linear relationship between the number of metabolically active cells and the absorption intensity. […] 2500 HeLa cells were seeded per well, in a 96-well microplate, and the cells were incubated with 100 μL of Dulbecco's Modified Eagle Medium (DMEM) culture medium enriched with 10% fetal bovine serum (FBS), at 37° C. and 5% CO2. The day after seeding, the 100 μL of medium was removed, and it was replaced by 80 μL of clean culture medium. Then 20 μL of a treatment was applied, and the cells were incubated under the same temperature and CO2 conditions. 24 hours after the treatment was applied, the treatment was removed, the cells were subsequently washed three (3) times with phosphate-buffered saline (PBS), and 80 μL of medium without indicator was added to the cells and 20 μL of MTS. The cells were incubated for 1 hour, and the absorbance was measured at a wavelength of 490 nm in a microplate reader. […] Each assay was performed in triplicate. In addition, within each assay the same treatment was applied to a minimum of 5 wells.

B16F10 cells = assay: Matrigel invasion assay; format: cell-based, murine; conditions: normalized to untreated control
Method: B16F10 cells (5×10^4) were seeded, allowed to grow for 24 h, and treated with CUR-NEM, CUR and controls. Then, serum-starved cells (2×10^5) were seeded (24 h) over 8 μm-porous inserts covered with Matrigel (Matrigel Invasion Chamber 8.0 lm; BD Biosciences Bedford, MA, USA). […] The membranes were mounted in Mowiol, and observed under a light microscope. At least 10 fields were evaluated (at 40× magnification) to determine the number of cells per field. The values obtained were normalized to those obtained for cells without treatment (control). Averages of values from three independent experiments are shown (mean±SEM). Statistically significant differences compared with the corresponding control group are indicated (**P<0.001; ****<0.0001). Metastasis is a complex process that is known to require migration and invasion of malignant cells.

[3] = Persistence of curcumin fluorescence at the treatment site after tumor excision; format: in vivo, mice; conditions: post-surgery
B16F10 (murine melanoma) = conditions: B16F10, 48-hour exposure; read-out: CI50 (the source's name); cited from earlier work
K562 (erythroleukemia) = conditions: K562, 48-hour exposure; read-out: CI50 (the source's name); cited from earlier work
[4] = tested on: Molt4 (human acute lymphoblastic leukemia); conditions: Molt4, 48-hour exposure; read-out: CI50 (the source's name); cited from earlier work
[5] = tested on: U937 (monoblastic leukemia); conditions: U937, 48-hour exposure; read-out: CI50 (the source's name); cited from earlier work
[6] = tested on: HL-60 (promyelocytic leukemia); conditions: HL-60, 48-hour exposure; read-out: CI50 (the source's name); cited from earlier work
HeLa = conditions: read-out: CI50 (the source's name); cited from earlier work

IC50 [1]: 34.8 ± 7.5 µg/mL (≈ 94.5 µM)
IC50 ([2]; Homo sapiens, 24-hour exposure, MTS, read-out: CI50 (the source's name)): 61.8 ± 18.1 µM
Curcumin fluorescence over basal levels, four (4) days after treatment [3]: not detectable
SMILES: COc1cc(C=CC(=O)CC(=O)C=Cc2ccc(O)c(OC)c2)ccc1O [curcumin, 1,7-bis(4-hydroxy-3methoxyphenyl)-1,6-heptadien-3,5-dione]
Concentration of maximum effectiveness (cytotoxicity) ([2]; after 24-hour exposure): 50 µM
Reduction in invasiveness (B16F10 cells): 10 fold
IC50 (B16F10 (murine melanoma)): ~3.5 µM
IC50 (K562 (erythroleukemia)): ~38.7 µM
IC50 [4]: ~14.4 µM
IC50 [5]: ~30.1 µM
IC50 [6]: ~15.7 µM
IC50 (HeLa): 13.3 µM
